According to patent US7262185B2, “Benzazepine derivative, process for producing the same, and use” (Takeda Chemical Industries Ltd., priority 2001, dated 2007):

| SMILES | melting point |
| --- | --- |
| CCCCOCCOc1ccc(-c2ccc3c(c2)C=C(C(=O)Nc2ccc([C@H](O)c4ccccn4)cc2)CCN3C(=O)C(F)(F)F)cc1 [Compound 79, 7-[4-(2-butoxyethoxy)phenyl]-N-[4-[(S)-hydroxy(2-pyridyl)methyl]phenyl]-1-trifluoroacetyl-2,3-dihydro-1H-1-benzazepine-4-carboxamide] | 100 to 102 °C |
| CCCCOCCOc1ccc(-c2ccc3c(c2)C=C(C(=O)Nc2ccc([C@H](O)c4cccc[n+]4[O-])cc2)CCN3Cc2nccs2)cc1 [Compound 86, 7-[4-(2-butoxyethoxy)phenyl]-N-[4-[(S)-hydroxy(1-oxidopyridin-2-yl)methyl]phenyl]-1-(thiazol-2-ylmethyl)-2,3-dihydro-1H-1-benzazepine-4-carboxamide] | 164 to 165 °C |
| CCCCOCCOc1ccc(-c2ccc3c(c2)C=C(C(=O)Nc2ccc(C/C(=N/O)c4nccn4CCC)cc2)CCN3CC(C)C)cc1 [Compound 453, 7-[4-(2-butoxyethoxy)phenyl]-N-[4-((2Z)-2-(hydroxyimino)-2-(1-propylimidazol-2-yl)ethyl)phenyl]-1-isobutyl-2,3-dihydro-1H-1-benzazepine-4-carboxamide] | 187.5 to 189.5 °C |
| CCCCOCCOc1ccc(-c2ccc3c(c2)C=C(C(=O)Nc2ccc(C(O)c4cccc[n+]4[O-])c(OCC(F)(F)F)c2)CCN3CC(C)C)cc1 (centres unmarked) [Compound 23, 7-[4-(2-butoxyethoxy)phenyl]-1-isobutyl-N-[4-[hydroxy(1-oxidopyridin-2-yl)methyl]-3-(2,2,2-trifluoroethoxy)phenyl]-2,3-dihydro-1H-1-benzazepine-4-carboxamide] | 118 to 123 °C |
| CCCCOCCOc1ccc(-c2ccc3c(c2)C=C(C(=O)Nc2ccc(SCc4nncn4CCC)c(C(F)(F)F)c2)CCN3CC(C)C)cc1 [Compound 42, 7-[4-(2-butoxyethoxy)phenyl]-1-isobutyl-N-[3-trifluoromethyl-4-[(4-propyl-4H-1,2,4-triazol-3-yl)methylthio]phenyl]-2,3-dihydro-1H-1-benzazepine-4-carboxamide] | 131 to 133 °C |
| CCCCOCCOc1ccc(-c2ccc3c(c2)C=C(C(=O)Nc2ccc([C@H](O)c4cccc[n+]4[O-])cc2)CCN3S(C)(=O)=O)cc1 [Compound 94, 7-[4-(2-butoxyethoxy)phenyl]-N-[4-[(S)-hydroxy(1-oxidopyridin-2-yl)methyl]phenyl]-1-methanesulfonyl-2,3-dihydro-1H-1-benzazepine-4-carboxamide] | 118 to 120 °C |
| CCCCOCCOc1ccc(-c2ccc3c(c2)C=C(C(=O)Nc2ccc(SCc4nccn4CCCC(=O)OCC)cc2)CCN3CC(C)C)cc1 [Compound 413, ethyl 4-[2-[[[4-[[[7-[4-(2-butoxyethoxy)phenyl]-1-isobutyl-2,3-dihydro-1H-1-benzazepin-4-yl]carbonyl]amino]phenyl]thio]methyl]-1H-imidazol-1-yl]butanoate] | 103 to 104 °C |
| CCCCOCCOc1ccc(-c2ccc3c(c2)C=C(C(=O)Nc2ccc([C@H](O)c4ccccn4)cc2)CCN3C=O)cc1 [Compound 75, 7-[4-(2-butoxyethoxy)phenyl]-1-formyl-N-[4-[(S)-hydroxy(2-pyridyl)methyl]phenyl]-2,3-dihydro-1H-1-benzazepine-4-carboxamide] | 130 to 134 °C |
| CCCCOCCOc1ccc(-c2ccc3c(c2)C=C(C(=O)Nc2ccc(C(O)c4ccc(Cl)cn4)cc2)CCN3C(=O)C(F)(F)F)cc1 (centres unmarked) [Compound 107, 7-[4-(2-butoxyethoxy)phenyl]-N-[4-[hydroxy(5-chloropyridin-2-yl)methyl]phenyl]-1-trifluoroacetyl-2,3-dihydro-1H-1-benzazepine-4-carboxamide] | 144 to 146 °C |
| CCCCOCCOc1ccc(-c2ccc3c(c2)C=C(C(=O)Nc2ccc([C@H](O)c4cccc[n+]4[O-])cc2)CCN3CC2CC2)cc1 [Compound 84, 7-[4-(2-butoxyethoxy)phenyl]-1-cyclopropylmethyl-N-[4-[(S)-hydroxy(1-oxidopyridin-2-yl)methyl]phenyl]-2,3-dihydro-1H-1-benzazepine-4-carboxamide] | 85 to 88 °C |
| CCCCOCCOc1ccc(-c2ccc3c(c2)C=C(C(=O)Nc2ccc(C(O)c4cc(C)cc[n+]4[O-])c(OCC)c2)CCN3CC(C)C)cc1 (centres unmarked) [Compound 12, 7-[4-(2-butoxyethoxy)phenyl]-N-[3-ethoxy-4-[hydroxy(4-methyl-1-oxidopyridin-2-yl)methyl]phenyl]-1-isobutyl-2,3-dihydro-1H-1-benzazepine-4-carboxamide] | 108 to 110 °C |
| CCCCOCCOc1ccc(-c2ccc3c(c2)C=C(C(=O)Nc2ccc(C(O)c4ccc(Cl)c[n+]4[O-])cc2)CCN3C(=O)C(F)(F)F)cc1 (centres unmarked) [Compound 108, 7-[4-(2-butoxyethoxy)phenyl]-N-[4-[hydroxy(5-chloro-1-oxidopyridin-2-yl)methyl]phenyl]-1-trifluoroacetyl-2,3-dihydro-1H-1-benzazepine-4-carboxamide] | 200 to 203 °C |
| CCCCOCCOc1ccc(-c2ccc3c(c2)C=C(C(=O)Nc2ccc([S+]([O-])Cc4cncn4CC(N)=O)cc2)CCN3CC(C)C)cc1 (centres unmarked) [Compound 430, N-[4-[[[1-(2-amino-2-oxoethyl)-1H-imidazol-5-yl]methyl]sulfinyl]phenyl]-7-[4-(2-butoxyethoxy)phenyl]-1-isobutyl-2,3-dihydro-1H-1-benzazepine-4-carboxamide] | 123 to 125 °C |
| CCCCOCCOc1ccc(-c2ccc3c(c2)C=C(C(=O)Nc2ccc(Sc4cccc5nc(C)cn45)cc2)CCN3CC(C)C)cc1 [Compound 170, 7-[4-(2-butoxyethoxy)phenyl]-1-isobutyl-N-[4-(2-methylimidazo[1,2-a]pyridin-5-ylthio)phenyl]-2,3-dihydro-1H-benzazepine-4-carboxamide] | 164 to 166 °C |
| CCCCOCCOc1ccc(-c2ccc3c(c2)C=C(C(=O)Nc2ccc([S+]([O-])Cc4nncn4CCCC)cc2)CCN3CC(C)C)cc1 (centres unmarked) [Compound 143, 7-[4-(2-butoxyethoxy)phenyl]-N-[4-(4-n-butyl-4H-1,2,4-triazol-3-ylmethylsulfinyl)phenyl]-1-isobutyl-2,3-dihydro-1H-benzazepine-4-carboxamide] | 178 to 180 °C |
| CCCCOCCOc1ccc(-c2ccc3c(c2)C=C(C(=O)Nc2ccc([S+]([O-])c4cccc5nccn45)cc2)CCN3CC(C)C)cc1 (centres unmarked) [Compound 169, 7-[4-(2-butoxyethoxy)phenyl]-1-isobutyl-N-[4-(imidazo[1,2-a]pyridin-5-ylsulfinyl)phenyl]-2,3-dihydro-1H-benzazepine-4-carboxamide] | 162 to 164 °C |
| CCCCOCCOc1ccc(-c2ccc3c(c2)C=C(C(=O)Nc2ccc(SCCn4cnnc4)cc2)CCN3CCC)cc1 [Compound 156, 7-[4-(2-butoxyethoxy)phenyl]-N-[4-(4H-1,2,4-triazol-4-ylethylthio)phenyl]-1-propyl-2,3-dihydro-1H-benzazepine-4-carboxamide] | 114 to 115 °C |
| CCCCOCCOc1ccc(-c2ccc3c(c2)C=C(C(=O)Nc2ccc(C(O)c4ccc(C)cn4)cc2)CCN3C(=O)C(F)(F)F)cc1 (centres unmarked) [Compound 103, 7-[4-(2-butoxyethoxy)phenyl]-N-[4-[hydroxy(5-methylpyridin-2-yl)methyl]phenyl]-1-trifluoroacetyl-2,3-dihydro-1H-1-benzazepine-4-carboxamide] | 110 to 113 °C |
| CCCCOCCOc1ccc(-c2ccc3c(c2)C=C(C(=O)Nc2ccc(S(=O)(=O)Cc4ncn(C)n4)cc2)CCN3CC(C)C)cc1 [Compound 127, 7-[4-(2-butoxyethoxy)phenyl]-1-isobutyl-N-[4-(1-methyl-1H-1,2,4-triazol-3-ylmethylsulfonyl)phenyl]-2,3-dihydro-1H-benzazepine-4-carboxamide] | 205 to 208 °C |
| CCCCOCCOc1ccc(-c2ccc3c(c2)C=C(C(=O)Nc2ccc([S+]([O-])Cc4nncn4C)cc2)CCN3CCC)cc1 (centres unmarked) [Compound 133, 7-[4-(2-butoxyethoxy)phenyl]-N-[4-(4-methyl-4H-1,2,4-triazol-3-ylmethylsulfinyl)phenyl]-1-propyl-2,3-dihydro-1H-1-benzazepine-4-carboxamide] | 101 to 103 °C |
| CCCCOCCOc1ccc(-c2ccc3c(c2)C=C(C(=O)Nc2ccc([C@H](O)c4cccc[n+]4[O-])cc2)CCN3Cc2ccccc2)cc1 [Compound 90, 1-benzyl-7-[4-(2-butoxyethoxy)phenyl]-N-[4-[(S)-hydroxy(1-oxidopyridin-2-yl)methyl]phenyl]-2,3-dihydro-1H-1-benzazepine-4-carboxamide] | 89 to 93 °C |
| CCCCOCCOc1ccc(-c2ccc3c(c2)C=C(C(=O)Nc2ccc(SCc4ncon4)cc2)CCN3CC(C)C)cc1 [Compound 128, 7-[4-(2-butoxyethoxy)phenyl]-1-isobutyl-N-[4-(1,2,4-oxadiazol-3-ylmethylthio)phenyl]-2,3-dihydro-1H-benzazepine-4-carboxamide] | 112 to 115 °C |
| CCCCOCCOc1ccc(-c2ccc3c(c2)C=C(C(=O)Nc2ccc([S+]([O-])Cc4ncn(C)n4)cc2)CCN3CC(C)C)cc1 (centres unmarked) [Compound 126, 7-[4-(2-butoxyethoxy)phenyl]-1-isobutyl-N-[4-(1-methyl-1H-1,2,4-triazol-3-ylmethylsulfinyl)phenyl]-2,3-dihydro-1H-benzazepine-4-carboxamide] | 112 to 114 °C |
| CCCCOCCOc1ccc(-c2ccc3c(c2)C=C(C(=O)Nc2ccc([C@@H](O)c4ccccn4)cc2)CCN3C=O)cc1 [Compound 76, 7-[4-(2-butoxyethoxy)phenyl]-1-formyl-N-[4-[(R)-hydroxy(2-pyridyl)methyl]phenyl]-2,3-dihydro-1H-1-benzazepine-4-carboxamide] | 110 to 112 °C |
| CCCCOCCOc1ccc(-c2ccc3c(c2)C=C(C(=O)Nc2ccc([C@@H](O)c4cccc[n+]4[O-])cc2)CCN3C=O)cc1 [Compound 78, 7-[4-(2-butoxyethoxy)phenyl]-1-formyl-N-[4-[(R)-hydroxy(1-oxidopyridin-2-yl)methyl]phenyl]-2,3-dihydro-1H-1-benzazepine-4-carboxamide] | 104 to 106 °C |
| CCCCOCCOc1ccc(-c2ccc3c(c2)C=C(C(=O)Nc2ccc(C(O)c4cccc(C)[n+]4[O-])cc2)CCN3)cc1 (centres unmarked) [Compound 97, 7-[4-(2-butoxyethoxy)phenyl]-N-[4-[hydroxy(6-methyl-1-oxidopyridin-2-yl)methyl]phenyl]-2,3-dihydro-1H-1-benzazepine-4-carboxamide] | 175 to 177 °C |
